Test results as given in patent publication US20250136638A1, “9(11)-UNSATURATED NEUROACTIVE STEROIDS AND THEIR METHODS OF USE” (SAGE THERAPEUTICS, INC., priority 2018, published 2025).
pIC50: −log10 of the molar value.

The molecules below were run against rat brain cortical membranes ([35S]-TBPS binding, GABA receptor complex) (assay: Steroid inhibition of [35S]-TBPS binding). Conditions: 3 nM [35S]-TBPS, in the presence of 5 mM GABA.
Procedure: [^35S]-t-Butylbicyclophosphorothionate (TBPS) binding assays using rat brain cortical membranes in the presence of 5 mM GABA has been described (Gee et al, J. Pharmacol. Exp. Ther. 1987, 241, 346-353; Hawkinson et al, Mol. Pharmacol. 1994, 46, 977-985; Lewin, A. H et al., Mol. Pharmacol. 1989, 35, 189-194).
Briefly, cortices are rapidly removed following decapitation of carbon dioxide-anesthetized Sprague-Dawley rats (200-250 g). The cortices are homogenized in 10 volumes of ice-cold 0.32 M sucrose using a glass/teflon homogenizer and centrifuged at 1500×g for 10 min at 4° C. The resultant supernatants are centrifuged at 10,000×g for 20 min at 4° C. to obtain the P2 pellets. The P2 pellets are resuspended in 200 mM NaCl/50 mM Na—K phosphate pH 7.4 buffer and centrifuged at 10,000×g for 10 min at 4° C. This washing procedure is repeated twice and the pellets are resuspended in 10 volumes of buffer. Aliquots ([…]) of the membrane suspensions are incubated with 3 nM [^35S]-TBPS and […] aliquots of test drug dissolved in dimethyl sulfoxide (DMSO) (final 0.5%) in the presence of 5 mM GABA. The incubation is brought to a final volume of 1.0 mL with buffer. Nonspecific binding is determined in the presence of […] and ranged from 15 to 25%. Following a 90 min incubation at room temp, the assays are terminated by filtration through glass fiber filters (Schleicher and Schuell No. 32) using a cell harvester (Brandel) and rinsed three times with ice-cold buffer. Filter bound radioactivity is measured by liquid scintillation spectrometry. Non-linear curve fitting of the overall data for each drug averaged for each concentration is done using Prism (GraphPad). […] The concentration of test compound producing 50% inhibition (IC50) of specific binding and the maximal extent of inhibition (Imax) are determined for the individual experiments with the same model used for the overall data and then the means±SEM.s of the individual experiments are calculated.
Various compounds are or can be screened to determine their potential as modulators of [^35S]-TBPS binding in vitro. These assays are or can be performed in accordance with the above.

| Compound | pIC50 |
| --- | --- |
| CC(=O)[C@H]1CC[C@H]2[C@@H]3CC[C@H]4C[C@](C)(O)CC[C@]4(C)C3=CC[C@]12C [Example 1, 1-((3R,5S,8S,10S,13S,14S,17S)-3-hydroxy-3,10,13-trimethyl-2,3,4,5,6,7,8,10,12,13,14,15,16,17-tetradecahydro-1H-cyclopenta[a]phenanthren-17-yl)ethan-1-one] | 6.00 to 7.00 |
| C[C@@]1(O)CC[C@]2(C)C3=CC[C@]4(C)[C@@H](C(=O)Cn5cc(C#N)cn5)CC[C@H]4[C@@H]3CC[C@H]2C1 [Example 2, 1-(2-((3R,5S,8S,10S,13S,14S,17S)-3-hydroxy-3,10,13-trimethyl-2,3,4,5,6,7,8,10,12,13,14,15,16,17-tetradecahydro-1H-cyclopenta[a]phenanthren-17-yl)-2-oxoethyl)-1H-pyrazole-4-carbonitrile] | 7.00 to 8.00 |
| C[C@@]1(O)CC[C@]2(C)C3=CC[C@]4(C)[C@H](C(=O)Cn5cc(C#N)cn5)CC[C@H]4[C@@H]3CC[C@H]2C1 [Example 3, 1-(2-((3R,5S,8S,10S,13S,14S,17R)-3-hydroxy-3,10,13-trimethyl-2,3,4,5,6,7,8,10,12,13,14,15,16,17-tetradecahydro-1H-cyclopenta[a]phenanthren-17-yl)-2-oxoethyl)-1H-pyrazole-4-carbonitrile] | 5.00 to 6.00 |
| Cc1nnn(CC(=O)[C@H]2CC[C@H]3[C@@H]4CC[C@H]5C[C@](C)(O)CC[C@]5(C)C4=CC[C@]23C)n1 [Example 4, 1-((3R,5S,8S,10S,13S,14S,17S)-3-hydroxy-3,10,13-trimethyl-2,3,4,5,6,7,8,10,12,13,14,15,16,17-tetradecahydro-1H-cyclopenta[a]phenanthren-17-yl)-2-(5-methyl-2H-tetrazol-2-yl)ethan-1-one] | 6.00 to 7.00 |
| Cc1nnnn1CC(=O)[C@H]1CC[C@H]2[C@@H]3CC[C@H]4C[C@](C)(O)CC[C@]4(C)C3=CC[C@]12C [Example 5, 1-((3R,5S,8S,10S,13S,14S,17S)-3-hydroxy-3,10,13-trimethyl-2,3,4,5,6,7,8,10,12,13,14,15,16,17-tetradecahydro-1H-cyclopenta[a]phenanthren-17-yl)-2-(5-methyl-1H-tetrazol-1-yl)ethan-1-one] | 6.00 to 7.00 |
| C[C@@]1(O)CC[C@]2(C)C3=CC[C@]4(C)[C@@H](C(=O)Cn5ccnn5)CC[C@H]4[C@@H]3CC[C@H]2C1 [Example 6, 1-((3R,5S,8S,10S,13S,14S,17S)-3-hydroxy-3,10,13-trimethyl-2,3,4,5,6,7,8,10,12,13,14,15,16,17-tetradecahydro-1H-cyclopenta[a]phenanthren-17-yl)-2-(1H-1,2,3-triazol-1-yl)ethan-1-one] | 6.00 to 7.00 |
| C[C@@]1(O)CC[C@]2(C)C3=CC[C@]4(C)[C@@H](C(=O)Cn5nccn5)CC[C@H]4[C@@H]3CC[C@H]2C1 [Example 7, 1-((3R,5S,8S,10S,13S,14S,17S)-3-hydroxy-3,10,13-trimethyl-2,3,4,5,6,7,8,10,12,13,14,15,16,17-tetradecahydro-1H-cyclopenta[a]phenanthren-17-yl)-2-(2H-1,2,3-triazol-2-yl)ethan-1-one] | 6.00 to 7.00 |
| CC(=O)[C@H]1CC[C@H]2[C@@H]3CC[C@@H]4C[C@](C)(O)CC[C@]4(C)C3=CC[C@]12C [Example 8, 1-((3R,5R,8S,10S,13S,14S,17S)-3-hydroxy-3,10,13-trimethyl-2,3,4,5,6,7,8,10,12,13,14,15,16,17-tetradecahydro-1H-cyclopenta[a]phenanthren-17-yl)ethan-1-one] | 7.00 to 8.00 |
| C[C@@]1(O)CC[C@]2(C)C3=CC[C@]4(C)[C@@H](C(=O)Cn5cc(C#N)cn5)CC[C@H]4[C@@H]3CC[C@@H]2C1 [Example 9, 1-(2-((3R,5R,8S,10S,13S,14S,17S)-3-hydroxy-3,10,13-trimethyl-2,3,4,5,6,7,8,10,12,13,14,15,16,17-tetradecahydro-1H-cyclopenta[a]phenanthren-17-yl)-2-oxoethyl)-1H-pyrazole-4-carbonitrile] | 7.00 to 8.00 |
| Cc1nnn(CC(=O)[C@H]2CC[C@H]3[C@@H]4CC[C@@H]5C[C@](C)(O)CC[C@]5(C)C4=CC[C@]23C)n1 [Example 10, 1-((3R,5R,8S,10S,13S,14S,17S)-3-hydroxy-3,10,13-trimethyl-2,3,4,5,6,7,8,10,12,13,14,15,16,17-tetradecahydro-1H-cyclopenta[a]phenanthren-17-yl)-2-(5-methyl-2H-tetrazol-2-yl)ethan-1-one] | 7.00 to 8.00 |
| Cc1nnnn1CC(=O)[C@H]1CC[C@H]2[C@@H]3CC[C@@H]4C[C@](C)(O)CC[C@]4(C)C3=CC[C@]12C [Example 11, 1-((3R,5R,8S,10S,13S,14S,17S)-3-hydroxy-3,10,13-trimethyl-2,3,4,5,6,7,8,10,12,13,14,15,16,17-tetradecahydro-1H-cyclopenta[a]phenanthren-17-yl)-2-(5-methyl-1H-tetrazol-1-yl)ethan-1-one] | 6.00 to 7.00 |
| C[C@@]1(O)CC[C@]2(C)C3=CC[C@]4(C)[C@@H](C(=O)Cn5ccnn5)CC[C@H]4[C@@H]3CC[C@@H]2C1 [Example 12, 1-((3R,5R,8S,10S,13S,14S,17S)-3-hydroxy-3,10,13-trimethyl-2,3,4,5,6,7,8,10,12,13,14,15,16,17-tetradecahydro-1H-cyclopenta[a]phenanthren-17-yl)-2-(1H-1,2,3-triazol-1-yl)ethan-1-one] | 6.00 to 7.00 |
| C[C@@]1(O)CC[C@]2(C)C3=CC[C@]4(C)[C@@H](C(=O)Cn5nccn5)CC[C@H]4[C@@H]3CC[C@@H]2C1 [Example 13, 1-((3R,5R,8S,10S,13S,14S,17S)-3-hydroxy-3,10,13-trimethyl-2,3,4,5,6,7,8,10,12,13,14,15,16,17-tetradecahydro-1H-cyclopenta[a]phenanthren-17-yl)-2-(2H-1,2,3-triazol-2-yl)ethan-1-one] | 7.00 to 8.00 |
| CCOC[C@@]1(O)CC[C@]2(C)C3=CC[C@]4(C)[C@@H](C(C)=O)CC[C@H]4[C@@H]3CC[C@H]2C1 [Example 14, 1-((3R,5S,8S,10S,13S,14S,17S)-3-(ethoxymethyl)-3-hydroxy-10,13-dimethyl-2,3,4,5,6,7,8,10,12,13,14,15,16,17-tetradecahydro-1H-cyclopenta[a]phenanthren-17-yl)ethan-1-one] | 5.00 to 6.00 |
| CCOC[C@@]1(O)CC[C@]2(C)C3=CC[C@]4(C)[C@@H](C(C)=O)CC[C@H]4[C@@H]3CC[C@@H]2C1 [Example 15, 1-((3R,5R,8S,10S,13S,14S,17S)-3-(ethoxymethyl)-3-hydroxy-10,13-dimethyl-2,3,4,5,6,7,8,10,12,13,14,15,16,17-tetradecahydro-1H-cyclopenta[a]phenanthren-17-yl)ethan-1-one] | 6.00 to 7.00 |
| COC[C@@]1(O)CC[C@]2(C)C3=CC[C@]4(C)[C@@H](C(C)=O)CC[C@H]4[C@@H]3CC[C@@H]2C1 [Example 16, 1-((3R,5R,8S,10S,13S,14S,17S)-3-hydroxy-3-(methoxymethyl)-10,13-dimethyl-2,3,4,5,6,7,8,10,12,13,14,15,16,17-tetradecahydro-1H-cyclopenta[a]phenanthren-17-yl)ethan-1-one] | 6.00 to 7.00 |
| COC[C@@]1(O)CC[C@]2(C)C3=CC[C@]4(C)[C@@H](C(=O)Cn5cc(C#N)cn5)CC[C@H]4[C@@H]3CC[C@@H]2C1 [Example 17, 1-(2-((3R,5R,8S,10S,13S,14S,17S)-3-hydroxy-3-(methoxymethyl)-10,13-dimethyl-2,3,4,5,6,7,8,10,12,13,14,15,16,17-tetradecahydro-1H-cyclopenta[a]phenanthren-17-yl)-2-oxoethyl)-1H-pyrazole-4-carbonitrile] | 7.00 to 8.00 |
